We go through 7 compounds from ChEMBL document CHEMBL1128987, “Benzenesulfonamide-peptide conjugates as probes for secondary binding sites near the active site of carbonic anhydrase” (Bioorg Med Chem Lett, 1996).

“And” between values parts separate entries of the source, which are not always exact repeats. Identical values can stand only once. Where a SMILES comes first, the peptide text is derived from it. [ ]: non-standard residue; d: D form. The star is where a group is joined. Benzoyl(4-SO2NH2) = NS(=O)(=O)c1ccc(C(=O)*)cc1; Phe(4-Cl) = N[C@@H](Cc1ccc(Cl)cc1)C(=O)O; Nle = CCCC[C@H](N)C(=O)O

Assay [1] concerns the target T1, Carbonic anhydrase 2 (Homo sapiens, UniProt P00918).
Description: Kinetic constant for binding human carbonic anhydrase II (Kon=Kd x Koff)
Assay [2] has as its target T1, Carbonic anhydrase 2. The source holds these as a separate data set.
Description: Kinetic constant for binding human carbonic anhydrase II
Assay [3] addresses T1, Carbonic anhydrase 2. Kind of assay: Dissociation constant against human carbonic anhydrase II at 37 degree Centigrade.
The target in assay [4] is T1, Carbonic anhydrase 2. The experiment in a line: Dissociation constant was determined against human carbonic anhydrase II at 37 degree Centigrade in experiment 2.
For assay [5], the target named is T1, Carbonic anhydrase 2. The experiment in a line: Dissociation constant was determined against human carbonic anhydrase II at 37 degree Celsius in experiment 1.

The term Kd denotes the free concentration of one partner at which half of the binding sites on the other are occupied at equilibrium, for simple one-to-one binding. Higher therefore signals weaker binding. The compound `NS(=O)(=O)c1ccc(C(=O)NCC(=O)NCC(=O)NCC(=O)NCC(=O)O)cc1` ({Benzoyl(4-SO2NH2)}-GGGG-OH) had a k on on Carbonic anhydrase 2 [1] of 250000 M⁻¹ s⁻¹. At Carbonic anhydrase 2 [2], this compound yielded a k off of 0.09 s⁻¹. Besides, the Kd at Carbonic anhydrase 2 [3] was 390 nM and 360 nM.

As to `CCCC[C@H](NC(=O)CNC(=O)CNC(=O)CNC(=O)c1ccc(S(N)(=O)=O)cc1)C(=O)O` ({Benzoyl(4-SO2NH2)}-GGG[Nle]-OH), at Carbonic anhydrase 2 [1], the k on was found to be 420000 M⁻¹ s⁻¹. Also, the k off on Carbonic anhydrase 2 [2] is 0.093 s⁻¹. Moreover, the Kd at Carbonic anhydrase 2 [3] was 190 nM and 220 nM.

As to `CCCCC(NC(=O)c1ccc(S(N)(=O)=O)cc1)C(=O)O` (configuration not stated), at Carbonic anhydrase 2 [2], the k off amounted to 0.011 s⁻¹. At Carbonic anhydrase 2 [3], this compound had a Kd of 5 nM.

With `NS(=O)(=O)c1ccc(C(=O)NC(Cc2ccc(Cl)cc2)C(=O)O)cc1` (configuration not stated), the k off at Carbonic anhydrase 2 [2] worked out at 0.022 s⁻¹. Further, at Carbonic anhydrase 2 [3], the Kd was 15 nM and 14 nM.

With `NS(=O)(=O)c1ccc(C(=O)NCC(=O)O)cc1`, the results for the Kd at Carbonic anhydrase 2 [4] and at Carbonic anhydrase 2 [5] were 330 nM and 310 nM, respectively. Also, the k off on Carbonic anhydrase 2 [2] turned out to be 0.12 s⁻¹.

At Carbonic anhydrase 2 [1], `NS(=O)(=O)c1ccc(C(=O)NCC(=O)NCC(=O)NCC(=O)N[C@@H](Cc2ccc(Cl)cc2)C(=O)O)cc1` ({Benzoyl(4-SO2NH2)}-GGG[Phe(4-Cl)]-OH) returned a k on of 850000 M⁻¹ s⁻¹. For the same compound, on Carbonic anhydrase 2 [2], the k off is 0.084 s⁻¹. Also, the Kd at Carbonic anhydrase 2 [3] is 96 nM and 99 nM.

At Carbonic anhydrase 2 [3], `NS(=O)(=O)c1ccc(C(=O)NCC(=O)NC(CC(=O)O)C(=O)O)cc1` (configuration not stated) registered a Kd of 420 nM.
